Source: ChEMBL document CHEMBL4622872, “Discovery of DS-1971a, a Potent, Selective NaV1.7 Inhibitor” (J Med Chem, 2020)
In brackets after ≈: the same amount, converted by molar mass.

What was measured:
[1] = Distribution coefficient, log D of the compound in 1-octanol and PBS buffer at pH 7.4 measured after 30 mins by LC-MS analysis; assay type: physicochemical; settings: 1-octanol/PBS buffer
[2] = Aqueous thermodynamic solubility of the compound at pH 6.8 measured after 4 hrs by UV-HPLC analysis; assay type: physicochemical; settings: buffer, pH 6.8; read-out: Therm_solubility
[3] = Stability of the compound in mouse liver microsomes assessed as parent compound remaining measured after 0.5 hrs; assay type: ADME, Microsome; settings: mouse liver microsomes, read-out: Stability

logD at 0.5 h [1]	solubility thermodynamic at 4 h [2] [µM]	remaining at 0.5 h [3] [%]	Structure (SMILES)
0.1	1800 (≈ 809 µg/mL)	77	Cn1nccc1[C@H]1CCCC[C@@H]1Oc1cc(F)c(S(=O)(=O)Nc2ccncn2)c(F)c1 (racemic)
0.4	550 (≈ 240 µg/mL)	82	Cn1nccc1[C@H]1CCC[C@@H]1Oc1ccc(S(=O)(=O)Nc2ccncn2)c(F)c1F (racemic)
